Measurements published in ChEMBL document CHEMBL3217645, “Online parallel fragment screening and rapid hit exploration for nicotinic acetylcholine receptors” (Medchemcomm, 2011).

Legend:
[1] = Selectivity ratio of Ki for Lymnaea stagnalis AChBP over Ki for Aplysia californica AChBP
[2] = molecular target: Neuronal acetylcholine receptor; alpha4/beta2 (Homo sapiens, UniProt P17787+P43681); assay: Displacement of [3H]epibatadine from human alpha4beta2 nAChR expressed in HEK293T cells after 1.5 hrs by scintillation counting analysis; type: cell-based, HEK-293T
Chain of Neuronal acetylcholine receptor; alpha4/beta2 (P17787 whole entry): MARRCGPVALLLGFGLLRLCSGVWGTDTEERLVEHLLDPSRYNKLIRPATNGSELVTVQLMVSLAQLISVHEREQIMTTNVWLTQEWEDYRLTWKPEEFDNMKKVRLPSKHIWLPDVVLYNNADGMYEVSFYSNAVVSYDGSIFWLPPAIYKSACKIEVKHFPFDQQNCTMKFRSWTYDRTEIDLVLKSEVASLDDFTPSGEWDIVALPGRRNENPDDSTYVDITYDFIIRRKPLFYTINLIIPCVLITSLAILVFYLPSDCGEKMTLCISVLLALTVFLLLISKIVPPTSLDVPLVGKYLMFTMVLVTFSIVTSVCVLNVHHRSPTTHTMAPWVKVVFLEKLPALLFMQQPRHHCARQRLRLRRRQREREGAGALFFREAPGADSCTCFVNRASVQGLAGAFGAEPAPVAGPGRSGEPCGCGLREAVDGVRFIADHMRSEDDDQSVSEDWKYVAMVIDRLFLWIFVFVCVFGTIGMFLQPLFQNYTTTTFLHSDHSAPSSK
Chain of Neuronal acetylcholine receptor; alpha4/beta2 (P43681 whole entry): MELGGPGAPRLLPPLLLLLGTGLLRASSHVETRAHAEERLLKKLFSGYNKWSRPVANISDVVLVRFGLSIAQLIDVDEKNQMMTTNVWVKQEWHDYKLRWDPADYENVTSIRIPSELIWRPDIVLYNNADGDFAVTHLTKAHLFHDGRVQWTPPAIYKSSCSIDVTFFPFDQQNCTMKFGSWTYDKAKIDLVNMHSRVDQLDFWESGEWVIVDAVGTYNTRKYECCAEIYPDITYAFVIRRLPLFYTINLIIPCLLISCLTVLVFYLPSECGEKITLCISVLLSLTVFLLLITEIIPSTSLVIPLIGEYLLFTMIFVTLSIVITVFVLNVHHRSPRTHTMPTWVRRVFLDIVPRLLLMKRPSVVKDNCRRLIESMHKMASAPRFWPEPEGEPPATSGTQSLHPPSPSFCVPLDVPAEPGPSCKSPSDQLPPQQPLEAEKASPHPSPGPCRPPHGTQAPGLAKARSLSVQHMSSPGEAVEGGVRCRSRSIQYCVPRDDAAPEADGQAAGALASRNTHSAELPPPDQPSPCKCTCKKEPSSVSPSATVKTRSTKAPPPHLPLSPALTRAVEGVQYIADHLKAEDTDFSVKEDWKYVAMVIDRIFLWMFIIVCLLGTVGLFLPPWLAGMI

[3] = molecular target: Neuronal acetylcholine receptor subunit alpha-7 (Homo sapiens, UniProt P36544); assay: Displacement of [3H]epibatadine from human alpha7 nAChR expressed in human SH-SY5Y cells after 1.5 hrs by scintillation counting analysis; type: cell-based
Chain of Neuronal acetylcholine receptor subunit alpha-7 (P36544 whole entry): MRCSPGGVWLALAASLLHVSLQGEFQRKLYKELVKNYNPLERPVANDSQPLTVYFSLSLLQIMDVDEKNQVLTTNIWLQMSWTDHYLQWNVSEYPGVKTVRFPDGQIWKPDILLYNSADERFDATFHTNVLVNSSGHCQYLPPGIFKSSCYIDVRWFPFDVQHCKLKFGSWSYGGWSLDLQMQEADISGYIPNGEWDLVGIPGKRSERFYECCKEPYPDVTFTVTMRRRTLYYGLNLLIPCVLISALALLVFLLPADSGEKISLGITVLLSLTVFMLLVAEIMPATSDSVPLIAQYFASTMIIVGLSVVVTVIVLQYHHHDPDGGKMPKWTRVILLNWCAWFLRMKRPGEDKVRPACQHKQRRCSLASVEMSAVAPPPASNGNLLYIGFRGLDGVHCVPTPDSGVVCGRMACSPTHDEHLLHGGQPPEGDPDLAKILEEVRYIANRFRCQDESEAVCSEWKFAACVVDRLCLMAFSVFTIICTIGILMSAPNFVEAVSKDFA

[4] = molecular target: Acetylcholine-binding protein (Lymnaea stagnalis, UniProt P58154); assay: Displacement of [3H]epibatadine from Lymnaea stagnalis recombinant C-terminal His-tagged AChBP expressed in baculovirus infected SF9 cells after 1.5 hrs by scintillation counting analysis
Chain of Acetylcholine-binding protein (P58154 whole entry): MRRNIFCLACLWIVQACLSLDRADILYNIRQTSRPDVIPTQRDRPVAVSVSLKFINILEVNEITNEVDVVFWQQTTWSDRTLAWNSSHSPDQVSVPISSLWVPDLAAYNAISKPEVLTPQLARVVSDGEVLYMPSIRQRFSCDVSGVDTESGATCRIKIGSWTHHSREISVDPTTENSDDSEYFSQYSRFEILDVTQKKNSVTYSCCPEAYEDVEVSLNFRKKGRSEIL

[5] = Displacement of [3H]epibatadine from Aplysia californica recombinant C-terminal His-tagged AChBP expressed in baculovirus infected SF9 cells after 1.5 hrs by scintillation counting analysis
[6] = Selectivity ratio of Ki for Lymnaea stagnalis recombinant C-terminal His-tagged AChBP to Ki for human alpha7 nAChR

| Structure (SMILES) | Ratio Ki [1] | Ki [2] | Ki [3] | Ki [4] | pKi [5] | Ratio Ki [6] |
| --- | --- | --- | --- | --- | --- | --- |
| C[C@H](NC(=O)[C@H](CS)NC(=O)[C@H](CCCNC(=N)N)NC(=O)[C@@H]1CCCN1C(=O)[C@H](CC(=O)O)NC(=O)[C@H](CO)NC(=O)[C@H](CS)NC(=O)[C@H](CS)NC(=O)CN)C(=O)N[C@@H](Cc1c[nH]c2ccccc12)C(=O)N[C@@H](CCCNC(=N)N)C(=O)N[C@@H](CS)C(N)=O | > 6000 |  |  |  |  |  |
| CC(C)N1CCC(=NO)CC1 | > 9.5 | > 100 µM | 10.2 µM | 10.5 µM | < 4 |  |
| Fc1ccc(F)c(NN=C2CCN(CCc3ccccc3)CC2)c1 |  |  | > 100 µM | 0.0891 µM |  |  |
| CN1[C@@H]2CC[C@H]1C/C(=N\Nc1ccccc1Cl)C2 |  |  | 2.19 µM | 0.204 µM |  | 5 |
